Source: ChEMBL document CHEMBL1201862, “PubChem BioAssay data set” (2004)
The source made the active and inactive calls.

Experiments:
[1] = target: Beta-adrenergic receptor kinase 1 (Homo sapiens, UniProt P25098); assay: aptamer displacement from bead-bound GRK2 – biochemical, cherry pick 1, bead flow cytometry, dose response (AID 504500)
[2] = target: Glutathione-S-transferase (Schistosoma japonicum, UniProt Q26513); assay: biotin-GST/anti-GST TR-FRET signal inhibitors, dose response, artefact control for Vif-APOBEC3G degradation inhibitor project, biochemical (AID 1117362); assay type: functional
Chain of Glutathione-S-transferase (Q26513 whole entry): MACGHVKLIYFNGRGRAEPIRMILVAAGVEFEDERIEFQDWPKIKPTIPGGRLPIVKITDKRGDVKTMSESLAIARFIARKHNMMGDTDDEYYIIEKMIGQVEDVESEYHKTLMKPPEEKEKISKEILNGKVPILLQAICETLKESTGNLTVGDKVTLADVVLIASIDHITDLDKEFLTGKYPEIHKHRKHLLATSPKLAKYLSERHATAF

[3] = target: NAD-dependent protein deacylase sirtuin-5, mitochondrial (Homo sapiens, UniProt Q9NXA8); assay: SIRT5 desuccinylase inhibitors, dose response, biochemical, fluorescence imaging, cherry-pick, set 5 (AID 720591);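 also: desuccinylation of succinyl peptide AMC substrate read as fluorescence after trypsin release; potency of inhibitors that lower fluorescence and may act on trypsin instead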
Chain of NAD-dependent protein deacylase sirtuin-5, mitochondrial (Q9NXA8 whole entry): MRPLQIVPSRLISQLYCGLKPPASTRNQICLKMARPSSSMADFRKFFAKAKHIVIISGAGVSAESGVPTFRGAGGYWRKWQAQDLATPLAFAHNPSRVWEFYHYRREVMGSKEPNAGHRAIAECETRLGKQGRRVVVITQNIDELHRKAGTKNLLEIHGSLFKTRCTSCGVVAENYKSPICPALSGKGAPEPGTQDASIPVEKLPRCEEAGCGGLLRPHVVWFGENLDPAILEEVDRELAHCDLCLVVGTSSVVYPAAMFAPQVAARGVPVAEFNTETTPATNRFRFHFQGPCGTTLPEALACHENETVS

Kallikrein-7 = Kallikrein-7 (Homo sapiens, UniProt P49862); assay: Fluorescence Intensity-based biochemical primary high throughput dose response assay to identify activators of kallikrein-7 (K7) zymogen.
Chain of Kallikrein-7 (P49862 whole entry): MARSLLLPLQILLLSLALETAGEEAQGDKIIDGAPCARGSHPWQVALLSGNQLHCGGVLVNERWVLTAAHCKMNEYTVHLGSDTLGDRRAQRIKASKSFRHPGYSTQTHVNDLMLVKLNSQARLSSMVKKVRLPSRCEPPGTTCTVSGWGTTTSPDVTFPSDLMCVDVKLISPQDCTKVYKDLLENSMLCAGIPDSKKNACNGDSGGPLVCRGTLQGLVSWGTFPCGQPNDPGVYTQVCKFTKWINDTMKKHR

[4] = Vero cell cytotoxicity, dose response, cytotoxicity control for Vif-APOBEC3G degradation inhibitor project, Vero cells (AID 1117358); assay type: functional; settings: Human immunodeficiency virus 1, Vero
[5] = Counterscreen for inhibitors of Trypanosoma brucei methionyl tRNA synthetase (MetRS): Luminescence-based cell-based high throughput dose response assay to identify compounds that are cytotoxic to Jurkat human T lymphocyte cells.; assay type: functional
[6] = target: Intestinal-type alkaline phosphatase (Homo sapiens, UniProt P09923); assay: inhibition of human intestinal alkaline phosphatase – biochemical, dose response (AID 488876); assay type: functional
Chain of Intestinal-type alkaline phosphatase (Homo sapiens, UniProt P09923) (P09923 whole entry): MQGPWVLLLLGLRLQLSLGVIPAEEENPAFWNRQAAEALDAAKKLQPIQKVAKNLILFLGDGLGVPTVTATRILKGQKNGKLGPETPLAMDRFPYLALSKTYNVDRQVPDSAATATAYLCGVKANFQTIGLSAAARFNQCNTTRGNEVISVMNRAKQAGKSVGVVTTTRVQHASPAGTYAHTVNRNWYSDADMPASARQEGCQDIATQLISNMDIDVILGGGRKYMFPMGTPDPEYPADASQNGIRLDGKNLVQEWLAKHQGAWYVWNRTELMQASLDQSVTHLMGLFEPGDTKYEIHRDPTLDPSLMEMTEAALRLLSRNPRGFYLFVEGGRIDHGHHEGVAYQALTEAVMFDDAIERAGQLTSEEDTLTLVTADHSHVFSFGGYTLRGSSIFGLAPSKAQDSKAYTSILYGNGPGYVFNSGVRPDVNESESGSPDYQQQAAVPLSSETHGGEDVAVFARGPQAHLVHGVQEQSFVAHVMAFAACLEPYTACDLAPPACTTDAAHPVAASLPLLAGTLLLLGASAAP

[7] = target: T1, Methionyl-tRNA synthetase, putative (Trypanosoma brucei brucei, UniProt Q38C91); assay type: functional, Trypanosoma brucei brucei strain 927/4 GUTat10.1
T1 sequence (Q38C91 whole entry): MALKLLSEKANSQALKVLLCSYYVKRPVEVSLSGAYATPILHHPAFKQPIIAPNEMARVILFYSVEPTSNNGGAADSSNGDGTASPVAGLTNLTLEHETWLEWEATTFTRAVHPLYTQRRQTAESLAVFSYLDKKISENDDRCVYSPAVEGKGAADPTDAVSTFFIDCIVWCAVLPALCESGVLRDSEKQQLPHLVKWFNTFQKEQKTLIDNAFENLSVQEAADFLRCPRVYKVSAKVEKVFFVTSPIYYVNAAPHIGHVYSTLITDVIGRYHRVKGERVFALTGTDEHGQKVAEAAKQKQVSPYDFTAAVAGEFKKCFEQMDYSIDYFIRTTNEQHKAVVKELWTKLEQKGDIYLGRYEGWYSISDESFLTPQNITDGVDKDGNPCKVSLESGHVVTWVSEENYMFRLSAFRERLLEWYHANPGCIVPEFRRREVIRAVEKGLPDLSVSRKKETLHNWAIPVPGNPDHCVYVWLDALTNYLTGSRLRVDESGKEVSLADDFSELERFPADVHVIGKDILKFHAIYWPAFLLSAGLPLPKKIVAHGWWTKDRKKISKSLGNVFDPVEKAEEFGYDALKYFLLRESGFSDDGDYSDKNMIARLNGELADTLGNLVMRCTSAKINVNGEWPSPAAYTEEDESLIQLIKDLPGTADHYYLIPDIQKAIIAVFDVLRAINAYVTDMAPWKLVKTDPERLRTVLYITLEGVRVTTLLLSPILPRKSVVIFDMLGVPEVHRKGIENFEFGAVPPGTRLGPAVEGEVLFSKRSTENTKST

[8] = target: Disintegrin and metalloproteinase domain-containing protein 17 (Homo sapiens, UniProt P78536); assay: ADAM17 protease inhibitors, dose response, counter-screen for ADAM10 exosite inhibitor project, biochemical, quenched FRET substrate (AID 743253)
[9] = target: Intestinal-type alkaline phosphatase (Mus musculus, UniProt P24822); assay: PubChem AID 488785; assay type: functional
Chain of Intestinal-type alkaline phosphatase (Mus musculus, UniProt P24822) (P24822 whole entry): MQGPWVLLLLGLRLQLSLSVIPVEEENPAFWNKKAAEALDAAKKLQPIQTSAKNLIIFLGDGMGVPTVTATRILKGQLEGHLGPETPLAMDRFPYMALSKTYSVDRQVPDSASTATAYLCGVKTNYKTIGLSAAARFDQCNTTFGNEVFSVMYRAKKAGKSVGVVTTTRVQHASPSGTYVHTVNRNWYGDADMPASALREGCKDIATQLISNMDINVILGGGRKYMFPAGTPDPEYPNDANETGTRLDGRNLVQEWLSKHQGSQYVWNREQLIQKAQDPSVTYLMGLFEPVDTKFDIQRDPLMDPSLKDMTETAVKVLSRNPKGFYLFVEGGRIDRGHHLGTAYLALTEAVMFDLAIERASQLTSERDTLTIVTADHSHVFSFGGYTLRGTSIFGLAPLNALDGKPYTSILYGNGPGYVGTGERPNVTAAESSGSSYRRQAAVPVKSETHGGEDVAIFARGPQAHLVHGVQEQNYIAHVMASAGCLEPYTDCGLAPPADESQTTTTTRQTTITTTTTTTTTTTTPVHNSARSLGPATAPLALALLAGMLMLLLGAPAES

[10] = target: T2, Alkaline phosphatase, tissue-nonspecific isozyme (Homo sapiens, UniProt P05186); assay: TNAP enzyme inhibition by screening hits, dose response, selectivity assay for mouse IAP inhibitor project, biochemical, human TNAP, uHTS hits (AID 488906); assay type: functional
T2 sequence (P05186 whole entry): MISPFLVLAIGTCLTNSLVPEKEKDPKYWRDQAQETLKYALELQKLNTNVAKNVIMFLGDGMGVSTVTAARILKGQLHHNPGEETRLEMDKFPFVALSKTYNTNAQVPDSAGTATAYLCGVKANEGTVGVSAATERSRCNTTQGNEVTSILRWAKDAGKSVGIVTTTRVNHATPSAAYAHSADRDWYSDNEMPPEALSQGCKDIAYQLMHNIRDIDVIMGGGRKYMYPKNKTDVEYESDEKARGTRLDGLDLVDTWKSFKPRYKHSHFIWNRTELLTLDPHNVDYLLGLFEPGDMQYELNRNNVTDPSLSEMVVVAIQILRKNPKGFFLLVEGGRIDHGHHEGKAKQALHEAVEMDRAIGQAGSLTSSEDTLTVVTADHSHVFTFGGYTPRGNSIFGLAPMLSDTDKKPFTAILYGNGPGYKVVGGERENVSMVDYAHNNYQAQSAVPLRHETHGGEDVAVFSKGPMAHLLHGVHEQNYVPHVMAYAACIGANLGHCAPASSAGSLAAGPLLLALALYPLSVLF

[11] = target: T1, Methionyl-tRNA synthetase, putative; assay type: functional, Trypanosoma brucei brucei strain 927/4 GUTat10.1; remark: listed apart in the source
[12] = ADAM10 inhibitors, peptide cleavage, dose response, biochemical, QFRET (AID 743254);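 also: ADAM10 enzyme with the DM2 quenched FRET peptide as substrate; EDANS fluorescence gain as the protease cuts the substrate; inhibitor potency against ADAM10 proteolytic activity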
[13] = A375 melanoma cell cytotoxicity, dose response, counter-screen for MITF inhibitor project, CellTiter-Glo luminescence, dry powder, set 6 (AID 624488); assay type: functional, cell-based; settings: A-375
[14] = A375 melanoma cell cytotoxicity, dose response, counter-screen for MITF inhibitor project, CellTiter-Glo luminescence, dry powder, set 2 (AID 624489); assay type: functional, cell-based; settings: A-375;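 also: actives are compounds lowering A375 viability meaning general cytotoxicity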
[15] = TRPM1 promoter luciferase reporter signal decrease, dose response, MITF inhibitor project, cell-based, SK-MEL-5, dry powder, set 9 (AID 651588); assay type: functional
[16] = A375 melanoma cell viability loss, dose response, counter-screen for MITF inhibitor project, CellTiter-Glo luminescence, dry powder, set 4 (AID 624364); assay type: functional, cell-based; settings: A-375;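 also: A375 melanoma cells are MITF independent so this is a counter screen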
[17] = SK-MEL-5 parental line viability, dose response, MITF inhibitor project, cell-based, CellTiter-Glo, dry powder, set 6 (AID 624429); assay type: functional
[18] = SK-MEL-5 parental cell viability reduction, dose response, orthogonal assay for MITF inhibitor project, CellTiter-Glo luminescence, dry powder, set 8 (AID 651586); assay type: functional, cell-based
[19] = MITF Orthogonal Assay: MALME3 CTG Assay Measured in Cell-Based System Using Plate Reader - 2084-04_Inhibitor_Dose_DryPowder_Activity_Set6.; assay type: functional; settings: MALME-3
[20] = MALME3 melanoma cell viability reduction, dose response, orthogonal assay for MITF inhibitor project, CellTiter-Glo luminescence, dry powder, set 5 (AID 651584); assay type: functional, cell-based; settings: MALME-3
[21] = MITF Measured in Cell-Based System Using Plate Reader - 2084-01_Inhibitor_Dose_DryPowder_Activity_Set6.; assay type: functional
[22] = A375 melanoma cell cytotoxicity, dose response, counter-screen for MITF inhibitor project, CellTiter-Glo luminescence, dry powder, set 7 (AID 624490); assay type: functional, cell-based; settings: A-375
[23] = MITF Orthogonal Assay: SK-MEL-5 CTG Assay Measured in Cell-Based System Using Plate Reader - 2084-02_Inhibitor_Dose_DryPowder_Activity_Set5.; assay type: functional
[24] = MITF Measured in Cell-Based System Using Plate Reader - 2084-01_Inhibitor_Dose_DryPowder_Activity_Set7.; assay type: functional
[25] = A375 melanoma cell viability loss, dose response, counter-screen for MITF modulator project, CellTiter-Glo luminescence, dry powder, set 9 (AID 651591); assay type: functional, cell-based; settings: A-375
[26] = P. falciparum Dd2 growth inhibitors, dose response, SYBR Green, dry powder samples, set 9 (AID 1159568); assay type: functional, cell-based
[27] = HepG2 cell cytotoxicity, dose response, cytotoxicity control, cherry-picked samples (AID 1159577); assay type: functional, cell-based
[28] = P. falciparum 3D7-ScDHODH growth inhibitors, dose response, SYBR Green, dry powder samples (AID 1159570); assay type: functional, cell-based;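 also: parasite growth measured after 72 hours of compound exposure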
[29] = P. falciparum Dd2 growth inhibitors, dose response, SYBR Green, cherry-picked samples (AID 1159567); assay type: functional, cell-based
[30] = HepG2 cell cytotoxicity, dose response, cytotoxicity control, plate reader, dry powder samples (AID 1159569); assay type: functional, cell-based;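 also: inhibitor potency with signal falling toward the positive control level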
[31] = P. falciparum ATP4 D1247Y mutant growth inhibitors, dose response, NITD609-resistant line, SYBR Green, dry powder (AID 1159571); assay type: functional, cell-based;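 also: parasites synchronized at ring stage by sorbitol before testing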
[32] = P. falciparum Dd2 growth inhibitors, dose response, SYBR Green, dry powder samples (AID 1159566); assay type: functional, cell-based;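 also: potency for growth inhibition with lower SYBR green DNA signal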
[33] = HepG2 cell cytotoxicity, dose response, cytotoxicity control, luminescence, dry powder, set 9 (AID 743358); assay type: functional, cell-based
[34] = Mtb BioA inhibitors by displacement, dose response, biochemical, coupled fluorescence displacement, 20-point, dry powder (AID 743357); assay type: functional
[35] = Dose-response inhibition of insulin secretion in a rat insulinoma line at 5 mM glucose (AID 1117331); assay type: functional, cell-based; settings: INS-1E
[36] = microbe, parasite or virus in culture; assay type: functional; settings: Mycobacterium tuberculosis
[37] = Glucagon-like peptide 1 release potency, NCI-H716 cell line, dose-response, half-maximal inhibitory concentration (AID 1117344); assay type: functional, cell-based
cells = assay type: functional, cell-based; settings: INS-1E
[38] = half-maximal inhibitory concentration for glucagon-like peptide-1 release, STC-1 cell line, dose-response (AID 1117345); assay type: functional, cell-based
[39] = SNU-C1 cell viability reduction, dose response, CellTiter-Glo luminescence (AID 1117323); assay type: functional, cell-based
[40] = target: Lysine-specific demethylase 4C (Homo sapiens, UniProt Q9H3R0); assay: GASC-1 (JMJD2C) histone demethylase inhibitors, dose response, biochemical, DELFIA europium, cherry-picked samples (AID 488835); assay type: functional
Chain of Lysine-specific demethylase 4C (Q9H3R0 whole entry): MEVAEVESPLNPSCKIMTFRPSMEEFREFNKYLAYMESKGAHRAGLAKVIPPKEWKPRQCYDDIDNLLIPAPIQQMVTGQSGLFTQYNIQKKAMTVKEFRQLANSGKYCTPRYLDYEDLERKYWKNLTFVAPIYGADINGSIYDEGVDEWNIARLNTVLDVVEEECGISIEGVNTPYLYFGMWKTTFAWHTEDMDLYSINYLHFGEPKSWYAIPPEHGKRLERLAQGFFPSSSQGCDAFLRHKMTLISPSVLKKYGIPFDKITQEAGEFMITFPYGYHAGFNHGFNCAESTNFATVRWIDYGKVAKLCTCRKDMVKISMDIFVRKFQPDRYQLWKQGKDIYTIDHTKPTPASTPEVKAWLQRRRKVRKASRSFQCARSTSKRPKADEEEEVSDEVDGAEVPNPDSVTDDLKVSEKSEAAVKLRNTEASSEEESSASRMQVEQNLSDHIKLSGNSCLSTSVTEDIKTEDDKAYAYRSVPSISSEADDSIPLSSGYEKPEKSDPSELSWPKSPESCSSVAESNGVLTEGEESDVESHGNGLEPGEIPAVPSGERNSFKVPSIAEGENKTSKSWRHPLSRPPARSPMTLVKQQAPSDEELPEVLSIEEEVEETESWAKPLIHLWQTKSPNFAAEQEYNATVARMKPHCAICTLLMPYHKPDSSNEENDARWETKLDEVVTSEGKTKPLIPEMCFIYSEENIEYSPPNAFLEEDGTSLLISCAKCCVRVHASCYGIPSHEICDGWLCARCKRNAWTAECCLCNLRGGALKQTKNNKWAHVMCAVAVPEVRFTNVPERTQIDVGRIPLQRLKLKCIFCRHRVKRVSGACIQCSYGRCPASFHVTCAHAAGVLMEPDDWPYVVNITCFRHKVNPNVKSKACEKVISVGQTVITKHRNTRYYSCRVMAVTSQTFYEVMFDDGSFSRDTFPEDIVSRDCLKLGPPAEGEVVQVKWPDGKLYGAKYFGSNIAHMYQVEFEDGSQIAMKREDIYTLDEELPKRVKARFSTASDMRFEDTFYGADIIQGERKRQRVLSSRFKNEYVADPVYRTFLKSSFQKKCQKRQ

[41] = RKO cell viability reduction, dose response, CellTiter-Glo luminescence (AID 1117322); assay type: functional
Cytochrome P450 2D6 = Cytochrome P450 2D6 (Homo sapiens, UniProt P10635);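 also: CYP2D6 member of a cytochrome P450 panel assay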
Chain of Cytochrome P450 2D6 (P10635 whole entry): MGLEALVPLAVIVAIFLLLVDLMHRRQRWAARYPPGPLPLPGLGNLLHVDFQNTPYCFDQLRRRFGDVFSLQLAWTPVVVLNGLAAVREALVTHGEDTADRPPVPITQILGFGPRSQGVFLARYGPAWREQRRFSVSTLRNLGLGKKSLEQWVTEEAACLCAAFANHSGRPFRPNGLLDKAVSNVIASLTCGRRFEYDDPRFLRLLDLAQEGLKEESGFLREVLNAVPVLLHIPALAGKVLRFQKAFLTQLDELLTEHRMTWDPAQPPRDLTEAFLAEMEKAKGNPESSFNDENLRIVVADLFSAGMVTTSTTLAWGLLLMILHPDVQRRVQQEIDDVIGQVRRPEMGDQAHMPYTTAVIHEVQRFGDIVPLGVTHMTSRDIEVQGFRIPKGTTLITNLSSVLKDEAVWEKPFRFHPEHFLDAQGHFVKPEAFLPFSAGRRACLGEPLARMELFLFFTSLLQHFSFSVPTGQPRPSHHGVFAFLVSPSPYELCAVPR

[42] = Concentration-dependent survival of SW480 colon cancer line, luminescence detection with CellTiter-Glo, half-maximal inhibitory concentration (AID 1117338); assay type: functional
[43] = CellTiter-Glo luminescent dose response of DLD-1 viability loss (AID 1117352); assay type: functional
[44] = cytotoxicity toward HCT116 cells – cell-based, CellTiter-Glo luminescence, IC50, dose response (AID 1117332); assay type: functional; settings: HCT-116
[45] = cytotoxicity toward HT-29 cells – cell-based, CellTiter-Glo luminescence, IC50, dose response (AID 1117330); assay type: functional
[46] = HCT116 cell viability decrease, GSK3B pretreatment – CellTiter-Glo, IC50, dose response (AID 1117339); assay type: functional; settings: HCT-116
Cytochrome P450 2C19 = Cytochrome P450 2C19 (Homo sapiens, UniProt P33261); assay: Cytochrome panel assay with activity outcomes. Panel member name: p450-cyp2c19 Compounds with AC50 equal or less than 10 uM are considered active; assay type: functional; settings: read-out: AC50
Chain of Cytochrome P450 2C19 (P33261 whole entry): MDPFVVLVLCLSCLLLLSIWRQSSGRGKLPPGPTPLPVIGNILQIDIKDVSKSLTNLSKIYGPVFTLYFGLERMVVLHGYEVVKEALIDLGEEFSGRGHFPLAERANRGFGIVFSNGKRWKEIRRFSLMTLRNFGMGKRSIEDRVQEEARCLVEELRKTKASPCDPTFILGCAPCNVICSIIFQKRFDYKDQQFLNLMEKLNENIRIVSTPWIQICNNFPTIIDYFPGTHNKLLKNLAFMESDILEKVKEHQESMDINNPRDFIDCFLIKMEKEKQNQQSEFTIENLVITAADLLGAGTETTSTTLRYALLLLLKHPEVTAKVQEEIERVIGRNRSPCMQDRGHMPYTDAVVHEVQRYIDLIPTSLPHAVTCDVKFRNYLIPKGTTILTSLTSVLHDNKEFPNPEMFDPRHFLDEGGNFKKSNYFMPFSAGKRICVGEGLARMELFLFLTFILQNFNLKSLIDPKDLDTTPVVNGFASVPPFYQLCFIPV

[47] = cytotoxicity toward Colo320 cells – cell-based, CellTiter-Glo luminescence, IC50, dose response (AID 1117334); assay type: functional; settings: COLO 320

Chain of Beta-adrenergic receptor kinase 1 (P25098 whole entry): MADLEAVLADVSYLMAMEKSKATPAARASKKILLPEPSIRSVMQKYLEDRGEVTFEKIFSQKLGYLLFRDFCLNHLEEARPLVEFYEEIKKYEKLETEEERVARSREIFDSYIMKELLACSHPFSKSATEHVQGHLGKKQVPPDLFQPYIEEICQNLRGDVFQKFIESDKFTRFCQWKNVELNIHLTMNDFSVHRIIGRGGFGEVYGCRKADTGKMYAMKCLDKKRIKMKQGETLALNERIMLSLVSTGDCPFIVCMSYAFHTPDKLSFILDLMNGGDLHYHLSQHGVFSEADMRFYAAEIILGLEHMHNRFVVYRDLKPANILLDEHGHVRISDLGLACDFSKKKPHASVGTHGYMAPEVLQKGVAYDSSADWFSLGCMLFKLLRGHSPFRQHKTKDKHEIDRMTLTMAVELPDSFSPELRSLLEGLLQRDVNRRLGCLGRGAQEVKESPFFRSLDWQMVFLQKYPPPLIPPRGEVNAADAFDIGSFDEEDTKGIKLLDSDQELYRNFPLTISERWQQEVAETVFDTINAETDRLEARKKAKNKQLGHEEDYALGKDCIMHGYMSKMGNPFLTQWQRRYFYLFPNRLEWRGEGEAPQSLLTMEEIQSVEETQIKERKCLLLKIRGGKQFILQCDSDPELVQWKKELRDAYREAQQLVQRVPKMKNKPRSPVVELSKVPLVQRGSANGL

C=C(C)C(=O)Nc1cccc(C2=NOC3(C2)C[C@@H](C(N)=O)N(C(=O)c2cc([N+](=O)[O-])cc([N+](=O)[O-])c2)C3)c1 (some centres undefined)
active: IC50 [2] > 100 µM
inactive: EC50 [1] 10.6 µM

CCOC(=O)c1cnc(-n2nc(C)cc2C)nc1Oc1ccccc1F
inactive: AC50 [3] > 30 µM

CCN1CCN(C(=O)COc2ccc3c(c2)C(=O)CC2(CCN(C(C)=O)CC2)O3)CC1
active: EC50 (Kallikrein-7) > 2.58 µM

O=C(NCCc1ccc(Cl)cc1)C1CCN(C(=O)c2sccc2-n2cccc2)CC1
active: CC50 [4] > 40 µM

CCc1cc(Cn2nc(-c3ccccc3)cc2C(=O)NCc2cccc(Br)c2)on1
inactive: IC50 [5] 83.3 µM | IC50 [6] > 100 µM | IC50 [8] > 69.5 µM | IC50 [12] > 69.5 µM
active: IC50 [7] 2.93 µM | IC50 [9] 12.9 µM | IC50 [10] 54.9 µM | IC50 [11] 1.66 µM

CCN1CCN(C2=C(NC(=O)c3ccccc3)C(=O)c3ccccc3C2=O)CC1
active: AC50 [13] 15.8 µM | AC50 [14] 11.2 µM | AC50 [15] 1.72 µM | AC50 [16] 26.7 µM | AC50 [17] 9.53 µM | AC50 [18] 9.73 µM | AC50 [19] 5.64 µM | AC50 [20] 5.64 µM | AC50 [21] 0.523 µM | AC50 [22] 10.1 µM | AC50 [23] 6.95 µM | AC50 [24] 0.729 µM | AC50 [25] 27.3 µM

COc1ccc2c3c([nH]c2c1)[C@H](CO)N(Cc1ccccc1)CC31CN(C(=O)c2ccccn2)C1
active: AC50 [26] 6.79 µM

C[C@H]1CN([C@@H](C)CO)C(=O)c2c(c3ccccc3n2C)-c2ccccc2CO[C@H]1CN(C)Cc1ccc(-c2ccccc2)cc1
inactive: AC50 [27] > 39 µM
active: AC50 [28] 3.14 µM | AC50 [29] 2.64 µM | AC50 [30] 28.9 µM | AC50 [31] 2.1 µM | AC50 [32] 1.54 µM

CC(C)NC(=O)N1CC[C@@H]2[C@@H](CO)N(C)c3ccc(-c4cccc(F)c4)cc3[C@@H]21
inactive: AC50 [33] > 52 µM
active: AC50 [34] 11.8 µM

Clc1ccc2c(c1)CCc1cccnc1C2=C1CCNCC1 [DESLORATADINE]
active: CC50 [36] 32.9 µM
inactive: IC50 [35] 7.11 µM | IC50 [37] > 40 µM | IC50 (cells) > 33.3 µM | IC50 [38] > 40 µM

N#CC(C#N)=Cc1ccc(O)c(O)c1 [TYRPHOSTIN 23]
active: AC50 [40] 10.8 µM | IC50 [41] 3.78 µM | IC50 [9] 4.22 µM | IC50 [10] 9.97 µM
inactive: IC50 [39] > 20 µM | IC50 [42] > 20 µM | IC50 [43] > 20 µM | IC50 [44] > 20 µM | IC50 [45] > 20 µM | IC50 [6] > 100 µM | IC50 [46] > 20 µM | IC50 [47] 6.74 µM
inconclusive: AC50 (Cytochrome P450 2D6) 20 µM | AC50 (Cytochrome P450 2C19) 15.8 µM
